Measurements taken from patent US20220409620A1, “REDUCING IMMUNOGENICITY TO PEGLOTICASE” (Horizon Pharma Rheumatology LLC, priority 2016, published 2022).

System: adult patients with uncontrolled gout
Test: Serum uric acid (sUA) levels and sUA responder rate, open-label study of pegloticase with MTX (MIRROR OL)
Assay type: in vivo, human
Conditions: mITT Population
Method: The primary objective is to estimate the response rate during Month 6 (Weeks 20, 22, and 24), as measured by the sustained normalization of serum uric acid (SUA) to <6 mg/dL for at least 80% of the time during Month 6 in subjects receiving KXX with MTX.
The primary efficacy outcome endpoint is the sustained normalization of SUA to <6 mg/dL for at least 80% of the time during month 6 (weeks 20, 22, and 24) in subjects receiving KXX with MTX. […] Participants who achieve this endpoint were classified as “responders.” Serum uric acid (SUA) responders may also be defined as participants achieving and maintaining SUA <6 mg/dL for at least 80% of the time during Month 6 (Weeks 20, 22, and 24).
Blood samples may be collected prior to each pegloticase infusion for measurement of SUA levels using the Beckman Coulter AU System Uric Acid procedure. Participants were declared “non-responders” if there were SUA measures >6 mg/dL at 2 consecutive study visits beginning with the week 2 visit. […] This assumption and subsequent discontinuation of pegloticase was consistent with the protocol of large phase III randomized controlled trials and the product label. A formal stopping rule was 2 occasions of SUA levels of greater than 6 mg/dL.
Clinical Chemistry—Blood samples were collected prior to each pegloticase infusion for measurement of SUA levels (primary efficacy parameter) using the Beckman Coulter AU System Uric Acid procedure. In this procedure uric acid is converted to hydrogen peroxide. Hydrogen peroxide reacts with reagent to produce a chromophore which is read bichromatically at 660/800 nm. The amount of dye formed is proportional to the uric acid concentration in the sample.
Serum samples for measurement of SUA levels were collected at the Screening Visit, the Week −4 Visit (prior to the first dose of MTX), and the Week −2 Visit during the MTX Run-in Period; within 48 hours prior to each pegloticase infusion and after the end of each pegloticase infusion prior to discharge from the site during the Pegloticase+IMM Period; at the non-infusion Week 52/End of Study/Early Termination Visits and at the Post Treatment 3 and 6 Month Follow-up Visits. Additional serum samples for SUA levels were collected at optional non-infusion (Frequent Sampling) Visits at Weeks 1 and 7. […] Subjects with SUA level >6 mg/dL at 2 consecutive visits beginning at Week 2 visit discontinued treatment, completed the End of Pegloticase Infusion Visit procedures within 2 weeks and continued the subject visits according to the protocol (without treatment).
Efficacy analyses were performed using the modified intention-to-treat (mITT) population, defined as all enrolled subjects who received ≥1 dose of pegloticase. The proportion of Month 6 responders was summarized, along with a 95% confidence interval for the proportion. The proportion of Month 3 and overall (Months 3 and 6 combined) responders was analyzed similarly.
A subject was declared a non-responder if the subject had SUA level >6 mg/dL at 2 consecutive study visits beginning with the Week 2 Visit. In addition, a subject who withdraws from study treatment for any reason after the first dose of pegloticase in the KXX+MTX Period and prior to Month 6 (for the primary endpoint) or Month 3 (for the secondary endpoint) was considered a non-responder if SUA values were not collected at the planned time points.
Patients were administered oral MTX (15 mg/week) and folate (1 mg/day) 4 weeks prior to the first pegloticase infusion (Day 1) and throughout the pegloticase treatment period. Blood was drawn prior to each infusion to measure sUA level, monitor clinical parameters, and examine for ADA development. All patients followed typical IR prophylaxis protocols (fexofenadine one day before and the morning of each infusion and acetaminophen and IV corticosteroid the morning of each infusion).

pegloticase
Serum Uric Acid, Observed, Mean (SD) (Week 7): 0.30 (0.000) mg/dL
Serum Uric Acid, Observed, Median (Week 7): 0.30 mg/dL
sUA <6 mg/dL, n (%) (Week 7): 4 (100%)
Serum Uric Acid, Change from Baseline, Mean (SD) (Week 8 - Post-Infusion): −8.98 (2.679) mg/dL
Serum Uric Acid, Change from Baseline, Median (Week 8 - Post-Infusion): -8.95 mg/dL
Serum Uric Acid, Observed, Mean (SD) (Week 8 - Post-Infusion): 0.30 (0.000) mg/dL
Serum Uric Acid, Observed, Median (Week 8 - Post-Infusion): 0.30 mg/dL
sUA <6 mg/dL, n (%) (Week 8 - Post-Infusion): 12 (100%)
Serum Uric Acid, Change from Baseline, Mean (SD) (Week 8 - Pre-Infusion): −8.20 (3.624) mg/dL
Serum Uric Acid, Change from Baseline, Median (Week 8 - Pre-Infusion): -8.33 mg/dL
Serum Uric Acid, Observed, Mean (SD) (Week 8 - Pre-Infusion): 1.08 (2.472) mg/dL
Serum Uric Acid, Observed, Median (Week 8 - Pre-Infusion): 0.30 mg/dL
sUA <6 mg/dL, n (%) (Week 8 - Pre-Infusion): 11 (91.7%)
Serum Uric Acid, Change from Baseline, Mean (SD) (Week 10 - Post-Infusion): −8.97 (2.810) mg/dL
Serum Uric Acid, Change from Baseline, Median (Week 10 - Post-Infusion): -8.80 mg/dL
Serum Uric Acid, Observed, Mean (SD) (Week 10 - Post-Infusion): 0.30 (0.000) mg/dL
Serum Uric Acid, Observed, Median (Week 10 - Post-Infusion): 0.30 mg/dL
sUA <6 mg/dL, n (%) (Week 10 - Post-Infusion): 11 (100%)
Serum Uric Acid, Change from Baseline, Mean (SD) (Week 10 - Pre-Infusion): −8.33 (3.476) mg/dL
Serum Uric Acid, Change from Baseline, Median (Week 10 - Pre-Infusion): -8.70 mg/dL
Serum Uric Acid, Observed, Mean (SD) (Week 10 - Pre-Infusion): 0.95 (2.252) mg/dL
Serum Uric Acid, Observed, Median (Week 10 - Pre-Infusion): 0.30 mg/dL
sUA <6 mg/dL, n (%) (Week 10 - Pre-Infusion): 11 (91.7%)
Serum Uric Acid, Change from Baseline, Mean (SD) (Week 12 - Post-Infusion): −9.13 (2.911) mg/dL
Serum Uric Acid, Change from Baseline, Median (Week 12 - Post-Infusion): -9.05 mg/dL
Serum Uric Acid, Observed, Mean (SD) (Week 12 - Post-Infusion): 0.30 (0.000) mg/dL
Serum Uric Acid, Observed, Median (Week 12 - Post-Infusion): 0.30 mg/dL
sUA <6 mg/dL, n (%) (Week 12 - Post-Infusion): 10 (100%)
Serum Uric Acid, Change from Baseline, Mean (SD) (Week 12 - Pre-Infusion): −8.98 (2.806) mg/dL
Serum Uric Acid, Change from Baseline, Median (Week 12 - Pre-Infusion): -8.80 mg/dL
Serum Uric Acid, Observed, Mean (SD) (Week 12 - Pre-Infusion): 0.30 (0.015) mg/dL
Serum Uric Acid, Observed, Median (Week 12 - Pre-Infusion): 0.30 mg/dL
sUA <6 mg/dL, n (%) (Week 12 - Pre-Infusion): 11 (100%)
Serum Uric Acid, Change from Baseline, Mean (SD) (Week 14 - Post-Infusion): −9.01 (2.959) mg/dL
Serum Uric Acid, Change from Baseline, Median (Week 14 - Post-Infusion): -9.05 mg/dL
Serum Uric Acid, Observed, Mean (SD) (Week 14 - Post-Infusion): 0.30 (0.000) mg/dL
Serum Uric Acid, Observed, Median (Week 14 - Post-Infusion): 0.30 mg/dL
sUA <6 mg/dL, n (%) (Week 14 - Post-Infusion): 10 (100%)
Serum Uric Acid, Change from Baseline, Mean (SD) (Week 14 - Pre-Infusion): −8.97 (2.810) mg/dL
Serum Uric Acid, Change from Baseline, Median (Week 14 - Pre-Infusion): -8.80 mg/dL
Serum Uric Acid, Observed, Mean (SD) (Week 14 - Pre-Infusion): 0.30 (0.000) mg/dL
Serum Uric Acid, Observed, Median (Week 14 - Pre-Infusion): 0.30 mg/dL
sUA <6 mg/dL, n (%) (Week 14 - Pre-Infusion): 11 (100%)
Serum Uric Acid, Change from Baseline, Mean (SD) (Week 16 - Post-Infusion): −8.97 (2.810) mg/dL
Serum Uric Acid, Change from Baseline, Median (Week 16 - Post-Infusion): -8.80 mg/dL
Serum Uric Acid, Observed, Mean (SD) (Week 16 - Post-Infusion): 0.30 (0.000) mg/dL
Serum Uric Acid, Observed, Median (Week 16 - Post-Infusion): 0.30 mg/dL
sUA <6 mg/dL, n (%) (Week 16 - Post-Infusion): 11 (100%)
Serum Uric Acid, Change from Baseline, Mean (SD) (Week 16 - Pre-Infusion): −8.97 (2.810) mg/dL
Serum Uric Acid, Change from Baseline, Median (Week 16 - Pre-Infusion): -8.80 mg/dL
Serum Uric Acid, Observed, Mean (SD) (Week 16 - Pre-Infusion): 0.30 (0.000) mg/dL
Serum Uric Acid, Observed, Median (Week 16 - Pre-Infusion): 0.30 mg/dL
sUA <6 mg/dL, n (%) (Week 16 - Pre-Infusion): 11 (100%)
Serum Uric Acid, Change from Baseline, Mean (SD) (Week 18 - Post-Infusion): −8.97 (2.810) mg/dL
Serum Uric Acid, Change from Baseline, Median (Week 18 - Post-Infusion): -8.80 mg/dL
Serum Uric Acid, Observed, Mean (SD) (Week 18 - Post-Infusion): 0.30 (0.000) mg/dL
Serum Uric Acid, Observed, Median (Week 18 - Post-Infusion): 0.30 mg/dL
sUA <6 mg/dL, n (%) (Week 18 - Post-Infusion): 11 (100%)
Serum Uric Acid, Change from Baseline, Mean (SD) (Week 18 - Pre-Infusion): −8.97 (2.810) mg/dL
Serum Uric Acid, Change from Baseline, Median (Week 18 - Pre-Infusion): -8.80 mg/dL
Serum Uric Acid, Observed, Mean (SD) (Week 18 - Pre-Infusion): 0.30 (0.000) mg/dL
Serum Uric Acid, Observed, Median (Week 18 - Pre-Infusion): 0.30 mg/dL
sUA <6 mg/dL, n (%) (Week 18 - Pre-Infusion): 11 (100%)
